Test results published in paper PMC4608580, “Synthesis and Evaluation of Biological Activity of Antimicrobial – Pro-Proliferative Peptide Conjugates” (PLoS ONE, 2015).
Read-outs that look alike come from different tables or passages of the source. No end group written: not given here.

Columns and labels:
B. subtilis = assay type: cell-based; settings: 24 h
Method: (§1) Luria-Bertani broth (LB) and Sabouraud Dextrose broth (SB) (Biocorp, Poland) were used for cultivation of bacteria and fungi strains, respectively. Antimicrobial activity of peptides was analyzed through determination of MIC (minimal inhibitory concentration) parameter according to the standard microdilution technique performed on 96-well plates. Mueller-Hinton broth (MHB) was used as the working medium for all bacterial strains, while in case of fungi it was additionally supplemented with 2% glucose.
(§2) Briefly, inoculum was prepared from freshly grown cultures of microorganisms being at their exponential phase of growth. Each well of 96-well plates containing 100 μL of serially diluted peptides in PBS (phosphate buffer saline) at concentration ranging from 2 to 250 μg/mL were inoculated with 100 μL of approximately 10^5 CFU/mL of bacterial suspension or about 2.5 x 10^3 CFU/mL of fungi suspended in a double concentrated Mueller-Hinton broth (supplemented with 2% glucose for Candida spps.). Then plates were incubated overnight at 37°C and absorbance was read at 590 nm after 24 h. Cultures without peptide were treated as positive control, while uninoculated Mueller-Hinton broth was defined as negative control. All measurements were run at least in triplicate.
(§3) All peptides were screened against the wide range of microorganisms, including Gram-negative, Gram-positive bacteria and fungi from Candida species (Table 2). Broth microdilution method for MIC determination was used as a standard procedure. All assays were performed on liquid Mueller-Hinton broth, which was additionally supplemented with 2% glucose when fungicidal activity towards Candida spps. was analyzed.

B. cereus = assay type: cell-based; settings: 24 h
Method: as §1, §2, §3

[1] = system: Pseudomonas aeruginosa (PCM 499); assay type: cell-based
Excerpt: (§4) Escherichia coli (PCM 2057), Staphylococcus aureus (PCM 2054), Staphylococcus epidermidis (PCM 2118), Pseudomonas aeruginosa (PCM 499) were obtained from Polish Collection of Microorganisms. Fungi strains Candida albicans (CCM 8186), Candida glabrata (CCM 8270), Candida parapsilosis (CCM 8260), Candida krusei (CCM 8271), Candida tropicalis (CCM 8264) were acquired from Czech Collection of Microorganisms.
as §1, §2, §3

[2] = system: Staphylococcus aureus (PCM 2054); assay type: cell-based
Excerpt: as §4, §1, §2, §3

[3] = system: Escherichia coli (PCM 2057); assay type: cell-based
Excerpt: as §4, §1, §2, §3

[4] = system: Staphylococcus epidermidis (PCM 2118); assay type: cell-based
Excerpt: as §4, §1, §2, §3

[5] = system: immortalized human HaCaT keratinocytes; test: Cell proliferation assay (MTT); assay type: cell-based; settings: 72 h, serum-free DMEM; for Effect on HaCaT proliferation (MTT), in words: lower concentrations, 1 or 10 μg/mL
Method: In our study two kind of cells were used: immortalized human HaCaT keratinocytes (DKFZ Heidelberg, Germany) and primary dermal fibroblasts obtained from 3 healthy donors. Both types of the used cell lines were grown in Dulbecco's modified Eagle's medium (DMEM) (Sigma–Aldrich, Germany), that contained […] of glucose, […] of L-glutamine, sodium pyruvate and sodium bicarbonate. Additionally, medium was supplemented with 10% of FCS (fetal calf serum, Sigma-Aldrich, Germany), 100 U/mL of penicillin and 100 μg/mL streptomycin (Sigma-Aldrich, Germany). The cells were grown in culture dishes (BD, USA) under standard conditions in a humidified atmosphere with 5% CO2 at 37°C and medium was changed every 2 days.
The fibroblasts and keratinocytes were seeded at density of 4500 and 6000 cells per well, respectively, into 96-well plates suspended in a medium supplemented with 10% of FCS. After 24 h the media were exchanged with serum- and antibiotic- free DMEM and tested peptides dissolved in PBS were added yielding final concentration ranging from 1 to 50 μg/mL. Cells were incubated for the next 24 hours, when the medium was exchanged again and fresh portion of peptides (used at the same concentrations as previously) was added. Incubation was continued for the next 48 hours (the overall time of cell exposition to peptide was 72 h). At the end of the experiment cells were treated with 20 μL of MTT (5 mg/mL in PBS). After 3 h at 37°C under 5% CO2 medium was discarded and replaced by 6mM HCl in isopropanol. After 15 min when the purple crystals of formazan were fully solubilized, absorbance was read at 570 nm with a plate reader. The optical density reflects the level of cell viability as MTT is converted in purple formazan product only in the presence of viable mitochondria of the living cells.
Fig 1 Pro-proliferative activity of the tested peptides towards human keratinocytes (A) and fibroblasts (B). Cells were incubated for 72 hours in serum-free DMEM medium in the presence of peptides applied at concentrations of 1,10, 25 and 50 μg/mL, respectively. The data represents results of MTT assay expressed as the percentage of the cell viability in comparison to their control sample (cells incubated in serum-free DMEM without tested peptides), additional positive control corresponds to the cells incubated in the presence of 10% FCS. All experiments were performed independently in triplicate. *P < 0.05, **P < 0.01, ***P < 0.001 vs. control.
In order to evaluate a long-term effect of peptides, experiments were carried out for 72 hours. Before addition of the tested compounds, the cell medium was exchanged for the fresh one not containing any serum or antibiotic.

[6] = Circular dichroism, alpha-helical content; assay type: physicochemical; settings: CD, mean residue ellipticity at 222 nm (Eq 1), peptide 0.4 mg/ml in 30 mM SDS, room temperature
Method: Circullar dichroism spectra of analyzed compounds were recorded on a Jasco J-815 spectropolarimeter using a quartz cell of 1 mm path length between 195–260 nm at room temperature. Peptides at concentration of 0.4 mg/ml were dissolved in water or 30 mM SDS solution. SDS micelle system was used as the simplified model of negatively charged lipid membrane. On the basis of the obtained results the alpha-helical content was determined from the mean residue ellipticities at 222 nm according to Eq 1: %Helix=([θ]obs/([θ]helixx(1−2.57/l))x100, (1) where [θ] obs is the experimentally observed mean-residue ellipticity at 222 nm, [θ]helix is the theoretical ellipticity of peptide of infinite length with a 100% helix population, taken as -39 500 deg·cm^2/dmol, and l is the number of peptide bonds.
Circular dichroism method was applied to obtain a basic information about the secondary structure of the synthesized compounds (with the exception of CAR, CAR3, DAL, CTEN2) in two chemical environments, water and 30 mM SDS. As expected, all the tested compounds in water adopted a random-coil structure, while in the presence of 30 mM SDS most of them formed α-helices with characteristic negative minima around 208 and 220 nm. […] The examples of CD spectra for selected peptides could be seen in supporting information (Figure A in S1 File). On the basis of the experimentally obtained values of the mean residue ellipticities of peptides at 222 nm their alpha-helical content was calculated according to the Eq 1 (Table 1).

[7] = system: Candida tropicalis (CCM 8264); assay type: cell-based; settings: broth microdilution, Mueller-Hinton broth + 2% glucose, about 2.5 x 10^3 CFU/mL, 37°C, 24 h, absorbance 590 nm, at least triplicate
Excerpt: as §4, §1, §2, §3

[8] = system: Candida krusei (CCM 8271); assay type: cell-based; settings: broth microdilution, Mueller-Hinton broth + 2% glucose, about 2.5 x 10^3 CFU/mL, 37°C, 24 h, absorbance 590 nm, at least triplicate
Excerpt: as §4, §1, §2, §3

[9] = system: Candida parapsilosis (CCM 8260); assay type: cell-based; settings: broth microdilution, Mueller-Hinton broth + 2% glucose, about 2.5 x 10^3 CFU/mL, 37°C, 24 h, absorbance 590 nm, at least triplicate
Excerpt: as §4, §1, §2, §3

[10] = system: Candida glabrata (CCM 8270); assay type: cell-based; settings: broth microdilution, Mueller-Hinton broth + 2% glucose, about 2.5 x 10^3 CFU/mL, 37°C, 24 h, absorbance 590 nm, at least triplicate
Excerpt: as §4, §1, §2, §3

[11] = system: Candida albicans (CCM 8186); assay type: cell-based; settings: broth microdilution, Mueller-Hinton broth + 2% glucose, about 2.5 x 10^3 CFU/mL, 37°C, 24 h, absorbance 590 nm, peptide 2 to 250 μg/mL, at least triplicate
Excerpt: as §4, §1, §2, §3

[12] = broth microdilution, Mueller-Hinton broth, approximately 10^5 CFU/mL, 37°C, absorbance 590 nm, at least triplicate
[13] = broth microdilution, Mueller-Hinton broth, approximately 10^5 CFU/mL, 37°C, 24 h, absorbance 590 nm, at least triplicate

Substance | MIC B. subtilis (B. subtilis) | MIC B. cereus (B. cereus) | MIC P. aeruginosa ([1]; PCM 499, 24 h) | MIC S.aureus ([2]; PCM 2054, 24 h) | MIC E.coli ([3]; PCM 2057, 24 h) | MIC S. epidermidis ([4]; PCM 2118, 24 h) | Effect on HaCaT cell viability/proliferation (MTT), in words ([5]; whole range 1–50 μg/mL, vs. control without peptide, triplicate) | Effect on HaCaT proliferation (MTT), in words [5] | α-helicity [6] | MIC B. subtilis (B. subtilis; [12]) | MIC B. cereus (B. cereus; [12]) | MIC C.tropicalis [7] | MIC P. aeruginosa [1, 13] | MIC C.krusei [8] | MIC C. parapsilosis [9] | MIC C.glabrata [10] | MIC C. albicans [11] | MIC S.aureus [2, 13] | MIC E.coli [3, 13] | MIC S. epidermidis [4, 13]
KKVVFWVKFK-NH2 [KSLW, reference compound] | 7.8 µg/mL | 50 µg/mL | 25 µg/mL | 25 µg/mL | 7.8 µg/mL | 7.8 µg/mL |  |  |  |  |  |  |  |  |  |  |  |  |  | 
YAGFLR [DAL, dalargin, synthetic Leu-enkephalin analogue, reference compound] |  |  |  |  |  |  | non-toxic |  |  |  |  |  |  |  |  |  |  |  |  | 
ΒAHβAHβAH-PEG-IKKILSKIKKLL-NH2 [CAR3-PEG-DK5, conjugate of CAR3 and DK5 joined by PEG-linker] |  |  |  |  |  |  |  | induced cell proliferation | 27% | 15.6 µg/mL | >125 µg/mL | 7.8 µg/mL | 50 µg/mL | 7.8 µg/mL | 2.0 µg/mL | 125 µg/mL | 100 µg/mL | >125 µg/mL | >125 µg/mL | 7.8 µg/mL
βAH-PEG-IKKILSKIKKLL-NH2 [CAR-PEG-DK5, conjugate of carnosine and DK5 joined by PEG-linker] |  |  |  |  |  |  |  | induced cell proliferation | 41% | 3.9 µg/mL | 100 µg/mL | <2 µg/mL | 50 µg/mL | 3.9 µg/mL | 31.3 µg/mL | 62.5 µg/mL | 15.6 µg/mL | 125 µg/mL | 100 µg/mL | 3.9 µg/mL
